The source of these data is ChEMBL document CHEMBL1201862, “PubChem BioAssay data set” (2004).

Calls of active or inactive are those of the source. A value given as a limit tells only on which side of the number the result lay.

The target of assay [1] is T1, Beta-galactosidase (Escherichia coli, UniProt Q8VNN2). Kind of assay: PubChem AID 485352. The assay is classed as functional.
For assay [2], the target named is T2, Heat shock factor protein 1 (Mus musculus, UniProt P38532).
T2 sequence (P38532 whole entry): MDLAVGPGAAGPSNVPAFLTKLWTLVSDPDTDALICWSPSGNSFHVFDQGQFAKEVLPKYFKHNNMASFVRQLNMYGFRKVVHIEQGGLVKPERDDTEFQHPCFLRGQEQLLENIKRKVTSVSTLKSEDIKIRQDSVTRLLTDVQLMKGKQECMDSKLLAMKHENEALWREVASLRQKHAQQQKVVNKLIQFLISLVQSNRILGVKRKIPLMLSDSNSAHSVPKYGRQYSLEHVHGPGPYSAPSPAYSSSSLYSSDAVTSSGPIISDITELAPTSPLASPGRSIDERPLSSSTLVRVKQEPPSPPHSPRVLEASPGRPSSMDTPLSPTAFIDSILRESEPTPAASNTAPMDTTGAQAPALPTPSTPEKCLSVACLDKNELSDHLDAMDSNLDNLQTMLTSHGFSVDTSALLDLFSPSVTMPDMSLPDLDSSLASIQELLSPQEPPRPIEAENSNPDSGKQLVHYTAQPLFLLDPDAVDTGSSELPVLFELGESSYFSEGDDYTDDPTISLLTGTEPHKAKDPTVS
Kind of assay: decrease of HSF1-responsive luciferase luminescence – cell-based, NIH3T3, dose retest, confirmation (AID 2382).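 Note: NIH3T3 fibroblasts with HSF1-driven luciferase reporter stressed by proteasome inhibitor MG132; luminescence from HSF1-driven luciferase expression after 8 hours of MG132 stress.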 The format is functional.

The nature of assay [3]: Trypanosoma cruzi growth suppression in host cells – NIH3T3 host cells, beta-gal luminescence, confirmation (AID 2044).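 Note: intracellular parasites grown in NIH/3T3 mouse fibroblasts as host cells; luminescent beta-galactosidase reporter signal from transgenic T. cruzi replicating inside host cells; inhibitors lower the luminescence signal.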 The format is functional, cell-based.
The nature of assay [4]: microbe, parasite or virus in culture. The format is functional. The settings on record: Mycobacterium tuberculosis.
Assay [5] in a line: Luminescence-based dose response cell-based high throughput screening assay for cytotoxic compounds using the IEC-6 intestinal epithelial cell line. [Related pubchem assays: 1858 (Summary AID.), 1825 (Counterscreen.), 1907 (Confirmation screen.)]. The format is functional. (The purpose of a counterscreen is to sort out artefacts and off-target activity.)
Assay [6] has as its target T3, Type-1 angiotensin II receptor (Homo sapiens, UniProt P30556).
T3 sequence (P30556 whole entry): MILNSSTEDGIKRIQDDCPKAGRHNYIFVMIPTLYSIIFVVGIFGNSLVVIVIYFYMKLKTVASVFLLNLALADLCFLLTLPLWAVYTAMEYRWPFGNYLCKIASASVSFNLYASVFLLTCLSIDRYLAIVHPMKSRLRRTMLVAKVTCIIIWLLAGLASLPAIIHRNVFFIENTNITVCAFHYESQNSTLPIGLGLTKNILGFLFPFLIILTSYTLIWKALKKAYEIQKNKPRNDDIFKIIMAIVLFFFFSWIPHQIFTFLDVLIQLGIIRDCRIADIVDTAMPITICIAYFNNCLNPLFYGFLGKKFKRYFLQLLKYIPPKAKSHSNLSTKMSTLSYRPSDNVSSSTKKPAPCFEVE
As to the kind of experiment: antagonism of angiotensin II type 1 receptor – cell-based, uHTS hits, selectivity assay for APJ receptor antagonist project, dose response (AID 463214).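 Note: antagonist potency against angiotensin II stimulated AT1 response.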 The assay is classed as functional.

Assay [7] in a line: NIH3T3 cell viability loss – ATP luminescence, mouse fibroblasts, counter-screen, dose response (AID 2010).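 Note: cells exposed to compound for about 90 hours before reading.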 The assay is classed as functional, cell-based.
The test system of assay [8] is INS1. As to the kind of experiment: INS-1E survival protection against cytokine death – cell-based, luminescence, retest, dose response (AID 449756).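 Note: cell death triggered by IL-1 beta plus TNF-alpha plus IFN-gamma mixture; protective hits raise ATP signal compared with cytokine alone wells.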 The settings on record: Rattus norvegicus. The format is functional.
Assay [9] is described as follows: reduction of Shn3 3'UTR-driven luciferase in osteoblasts – cell-based, Clone20 osteoblasts, firefly luciferase, cherry-picked, dose response (AID 624132).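 Note: firefly luciferase luminescence from reporter carrying the Shn3 3'UTR in osteoblasts.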 The assay is classed as functional.
Assay [10] is described as follows: loss of viability in HepG2 cells – cell-based, CellTiter-Glo, cherry-picked, cytotoxicity control for Shn3 inhibitor project, dose response (AID 624134). The format is functional. On the technique in general: ATP-based viability assays read luminescence as a measure of living cells.
The nature of assay [11]: non-specific 3'UTR reporter inhibition in Clone20-Shn3RL – cell-based, Renilla luciferase, cherry-picked, counter-screen for Shn3 inhibitor project, dose response (AID 624133). The assay is classed as functional.
A short description of assay [12]: Fluorescence-based cell-based high throughput dose response assay for inhibitors of the interaction of nucleotide-binding oligomerization domain containing 2 (NOD2) and the receptor-interacting serine-threonine kinase 2 (RIPK2). The format is functional. The settings on record: Homo sapiens.
Assay [13] in a line: A549 cell cytotoxicity, dose response, cytotoxicity control, plate reader, cherry-pick, antagonist series (AID 743412). The format is functional, cell-based.
Assay [14] can be described thus: toxicity toward HepG2 liver cells – cell-based, plate reader, cherry-pick, antagonist series, cytotoxicity control, dose response (AID 743416). The assay is classed as functional.
Assay [15] can be described thus: blockers of bursicon-stimulated LGR2 cAMP reporter – cell-based, HEK293, CRE-luciferase reporter, cherry pick, set 2, dose response (AID 743343).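 Note: transfected cells were stimulated with diluted bursicon conditioned medium after compound addition.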 The format is functional. Background: In a reporter assay the amount or activity of a reporter protein is the signal.
Assay [16] can be described thus: blockade of melanocortin 4 receptor signaling – cell-based, plate reader, cherry pick, counter-screen for LGR2 antagonist project, dose response (AID 743444).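 Note: transfected HEK 293 cells stimulated with alpha-MSH peptide; potency of inhibitors of the alpha-MSH evoked signal.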 The assay is classed as functional.
Assay [17] can be described thus: viability loss in HEK293 cells – cell-based, plate reader, cherry-picked samples, cytotoxicity control, dose response (AID 743446). The format is functional.
Assay [18] is described as follows: A Cell Based Secondary Assay To Explore Cytotoxicity of Compounds that Sensitize Mycobacterium Tuberculosis to Beta-Lactam Antibiotics. The format is functional.
The target in assay [19] is T4, Delta-type opioid receptor (Homo sapiens, UniProt P41143). Kind of assay: HTS Image-Based Screen for Antagonists of the DOR Receptor. [Related pubchem assays (depositor defined):AID1777, AID1785, AID1786, AID2133]. The format is functional.
T4 sequence (P41143 whole entry): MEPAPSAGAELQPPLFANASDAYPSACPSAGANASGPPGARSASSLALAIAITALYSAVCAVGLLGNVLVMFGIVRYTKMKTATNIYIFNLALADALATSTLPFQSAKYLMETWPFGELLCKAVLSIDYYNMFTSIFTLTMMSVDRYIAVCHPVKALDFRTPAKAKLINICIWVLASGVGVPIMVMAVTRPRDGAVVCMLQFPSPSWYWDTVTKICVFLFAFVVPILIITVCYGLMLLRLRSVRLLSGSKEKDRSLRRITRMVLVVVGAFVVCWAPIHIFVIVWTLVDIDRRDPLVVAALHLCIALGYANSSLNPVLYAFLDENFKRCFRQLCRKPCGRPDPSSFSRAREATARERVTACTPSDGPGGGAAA
The target of assay [20] is Mu-type opioid receptor (Homo sapiens, UniProt P35372). As to the kind of experiment: HTS Image-Based Screen for Agonists of the MOR Receptor. [Related pubchem assays (depositor defined):AID1777, AID1785, AID1786, AID2133]. The assay is classed as functional.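 Note: imaging of beta-arrestin GFP recruitment into spots after receptor activation.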
Mu-type opioid receptor, sequence (P35372 whole entry): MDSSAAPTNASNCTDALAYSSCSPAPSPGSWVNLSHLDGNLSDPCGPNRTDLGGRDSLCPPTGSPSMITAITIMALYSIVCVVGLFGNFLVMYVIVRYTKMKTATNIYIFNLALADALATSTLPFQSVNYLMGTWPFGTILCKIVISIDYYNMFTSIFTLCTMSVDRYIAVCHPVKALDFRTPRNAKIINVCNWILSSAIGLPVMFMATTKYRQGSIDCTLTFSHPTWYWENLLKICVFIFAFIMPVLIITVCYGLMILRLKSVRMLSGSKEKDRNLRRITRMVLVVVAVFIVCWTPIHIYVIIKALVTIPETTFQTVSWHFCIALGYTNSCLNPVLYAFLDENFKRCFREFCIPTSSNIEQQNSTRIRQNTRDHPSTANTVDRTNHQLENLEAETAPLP
The target in assay [21] is T4, Delta-type opioid receptor. Kind of assay: HTS Image-Based Screen for Agonists of the DOR Receptor. [Related pubchem assays (depositor defined):AID1777, AID1786, AID2133]. The assay is classed as functional.
For assay [22], the target named is T5, Kappa-type opioid receptor (Homo sapiens, UniProt P41145). The format is functional.
T5 sequence (P41145 whole entry): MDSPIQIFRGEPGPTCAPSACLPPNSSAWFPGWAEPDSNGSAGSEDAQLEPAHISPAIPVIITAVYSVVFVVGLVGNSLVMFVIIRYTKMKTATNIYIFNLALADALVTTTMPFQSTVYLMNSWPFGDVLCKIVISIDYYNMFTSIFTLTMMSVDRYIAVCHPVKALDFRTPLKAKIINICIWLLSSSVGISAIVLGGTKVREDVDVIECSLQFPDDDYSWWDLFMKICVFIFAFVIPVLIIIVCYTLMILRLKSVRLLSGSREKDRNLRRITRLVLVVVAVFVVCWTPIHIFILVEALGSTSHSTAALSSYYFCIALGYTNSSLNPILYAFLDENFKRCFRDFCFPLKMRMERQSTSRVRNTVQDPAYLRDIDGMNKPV
Assay [23] deals with T1, Beta-galactosidase. The format is functional.
Assay [24] deals with T5, Kappa-type opioid receptor. The format is functional. This is another data set of the same source.
Assay [25] has as its target Glucose-6-phosphate 1-dehydrogenase (Homo sapiens, UniProt P11413). Kind of assay: inhibition of Homo sapiens G6PD, dose series – biochemical, fluorescence, selectivity assay for P. falciparum G6PD inhibitor project, dose response (AID 504792). The assay is classed as functional.
A short description of assay [26]: NIH-3T3 fibroblast cytotoxicity, dose response, cytotoxicity control, cell-based, fluorescence, Alamar Blue, secondary assay (AID 2327).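 Note: NIH-3T3 mouse fibroblasts cultured with fluconazole at 8 µg/mL.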 The assay is classed as functional.
For assay [27], the system named is Streptococcus sp. 'group A'. Kind of assay: Streptococcus pyogenes SK(-)GAS viability under kanamycin – luminescence, BacTiterGlo, confirmation, counter-screen for streptokinase expression inhibitor project, dose response (AID 1900). The format is functional, organism-based.
For assay [28], the target named is T6, Streptokinase A (Streptococcus pyogenes serotype M1, UniProt P10520).
T6 sequence (P10520 whole entry): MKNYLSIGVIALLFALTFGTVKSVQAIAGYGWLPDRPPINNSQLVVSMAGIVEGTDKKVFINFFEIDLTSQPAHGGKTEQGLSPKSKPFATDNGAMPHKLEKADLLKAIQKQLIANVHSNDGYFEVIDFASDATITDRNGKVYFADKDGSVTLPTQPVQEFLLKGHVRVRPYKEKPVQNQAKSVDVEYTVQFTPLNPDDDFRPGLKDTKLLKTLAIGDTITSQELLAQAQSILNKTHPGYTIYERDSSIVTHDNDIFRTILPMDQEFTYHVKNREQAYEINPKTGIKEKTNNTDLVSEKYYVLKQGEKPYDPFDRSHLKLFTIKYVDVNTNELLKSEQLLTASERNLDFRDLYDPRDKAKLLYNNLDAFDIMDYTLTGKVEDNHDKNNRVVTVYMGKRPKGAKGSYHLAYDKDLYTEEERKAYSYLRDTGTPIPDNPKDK
As to the kind of experiment: viability-normalized secreted streptokinase activity reduction – plasminogen activation absorbance, OD405, dose response (AID 1914).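 Note: secreted streptokinase activity via plasminogen activation per viability signal from cell pellet.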 The assay is classed as functional, Streptococcus pyogenes M1 GAS.

The nature of assay [29]: fluconazole-exposed Candida albicans growth modulators – fluorescence, retest, confirmation (AID 2467). The assay is classed as functional, cell-based.
Assay [30] concerns Streptococcus. Kind of assay: GAS UMAA2166 growth inhibition – luminescence, BacTiterGlo, counter-screen for streptokinase expression inhibitor project, dose response (AID 1915).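 Note: potency for reduction of bacterial viability or growth.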 The assay is classed as functional, organism-based.
Assay [31] deals with Nonstructural protein 1 (Influenza A virus, UniProt Q194T2). The format is functional, Influenza A virus (A/California/07/2009(H1N1)).
Nonstructural protein 1, sequence (Q194T2 whole entry): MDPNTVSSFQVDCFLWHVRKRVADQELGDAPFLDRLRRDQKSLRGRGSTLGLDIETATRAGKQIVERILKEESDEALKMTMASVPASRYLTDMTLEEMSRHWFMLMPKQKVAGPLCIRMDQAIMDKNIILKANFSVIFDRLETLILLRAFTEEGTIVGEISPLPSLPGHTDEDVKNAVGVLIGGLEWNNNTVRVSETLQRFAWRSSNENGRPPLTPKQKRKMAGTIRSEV
Assay [32] deals with T2, Heat shock factor protein 1. Kind of assay: enhancement of HSF1-driven luciferase signal – cell-based, NIH3T3, luminescence, dose retest, confirmation (AID 435004).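 Note: stress induced by proteasome inhibitor MG132 added 30 min after compound; luciferase reporter driven by HSF1 response element in NIH3T3 cells; actives raise luminescence as potentiators of the MG132 stress response.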 The assay is classed as functional.
The target of assay [33] is Heat shock protein HSP 90-alpha (Homo sapiens, UniProt P07900). The assay is classed as functional, organism-based.
The subject of assay [34] is Vero. Kind of assay: cells. The format is functional. To be noted: Chlorocebus sabaeus.
Assay [35] deals with Voltage-gated N-type calcium channel alpha-1B subunit/Amyloid beta A4 precursor protein-binding family A member 1 (Homo sapiens, UniProt Q00975+Q02410). As to the kind of experiment: disruptors of Mint-PDZ/N-type channel peptide interaction – biochemical, HTRF, set 2, SAR follow-up (AID 434980). The format is functional.
The nature of assay [36]: A cytotoxicity screen of small molecule inhibitors of the PhoP region in Salmonella typhi identified in the primary screen. [Related pubchem assays: 1850, 1864, 1985 ]. The assay is classed as functional.

T1 sequence (Q8VNN2 whole entry): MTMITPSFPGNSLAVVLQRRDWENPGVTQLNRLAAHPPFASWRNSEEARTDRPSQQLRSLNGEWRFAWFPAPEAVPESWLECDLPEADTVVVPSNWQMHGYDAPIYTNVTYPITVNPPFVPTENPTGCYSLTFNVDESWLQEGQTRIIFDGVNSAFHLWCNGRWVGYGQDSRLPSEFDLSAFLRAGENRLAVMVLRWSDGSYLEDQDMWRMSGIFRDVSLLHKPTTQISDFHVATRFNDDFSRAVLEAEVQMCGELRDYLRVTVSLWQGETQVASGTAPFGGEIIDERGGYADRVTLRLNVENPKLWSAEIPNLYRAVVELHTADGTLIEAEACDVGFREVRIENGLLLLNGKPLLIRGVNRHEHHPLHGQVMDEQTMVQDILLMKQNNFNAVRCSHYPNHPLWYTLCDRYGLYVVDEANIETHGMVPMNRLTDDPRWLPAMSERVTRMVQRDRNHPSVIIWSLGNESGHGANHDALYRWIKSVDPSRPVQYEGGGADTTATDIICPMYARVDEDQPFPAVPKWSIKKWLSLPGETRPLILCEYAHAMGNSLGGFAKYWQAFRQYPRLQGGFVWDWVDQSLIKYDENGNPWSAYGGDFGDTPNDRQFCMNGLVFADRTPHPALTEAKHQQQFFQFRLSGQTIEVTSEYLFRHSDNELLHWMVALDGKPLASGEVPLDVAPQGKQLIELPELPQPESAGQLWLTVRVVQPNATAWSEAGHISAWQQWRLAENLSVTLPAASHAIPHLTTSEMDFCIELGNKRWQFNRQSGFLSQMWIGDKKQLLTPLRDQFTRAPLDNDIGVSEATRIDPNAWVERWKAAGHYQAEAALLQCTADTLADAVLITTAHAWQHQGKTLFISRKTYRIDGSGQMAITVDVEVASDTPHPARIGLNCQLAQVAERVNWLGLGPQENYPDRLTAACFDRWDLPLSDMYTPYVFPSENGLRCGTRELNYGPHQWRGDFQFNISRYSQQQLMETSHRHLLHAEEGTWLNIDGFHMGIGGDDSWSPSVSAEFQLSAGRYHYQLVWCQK
Glucose-6-phosphate 1-dehydrogenase, sequence (P11413 whole entry): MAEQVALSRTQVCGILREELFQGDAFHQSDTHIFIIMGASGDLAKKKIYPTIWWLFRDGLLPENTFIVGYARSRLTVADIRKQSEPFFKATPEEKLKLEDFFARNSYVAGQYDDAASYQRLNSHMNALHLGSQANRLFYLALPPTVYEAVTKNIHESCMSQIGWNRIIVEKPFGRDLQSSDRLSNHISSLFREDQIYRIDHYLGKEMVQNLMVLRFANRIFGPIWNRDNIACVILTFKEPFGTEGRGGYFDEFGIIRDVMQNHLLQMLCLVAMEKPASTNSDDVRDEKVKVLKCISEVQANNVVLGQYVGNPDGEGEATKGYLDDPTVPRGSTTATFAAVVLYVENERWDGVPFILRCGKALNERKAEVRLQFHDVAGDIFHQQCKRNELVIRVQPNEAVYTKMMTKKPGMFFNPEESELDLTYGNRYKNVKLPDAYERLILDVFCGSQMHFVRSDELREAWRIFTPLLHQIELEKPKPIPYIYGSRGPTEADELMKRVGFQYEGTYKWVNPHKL

In general, EC50 refers to the concentration at which the effect is half-maximal. In general, IC50 refers to the concentration that gives 50% inhibition. By AC50 is commonly meant the concentration at which the activity in the assay is half-maximal. On to `O=[N+]([O-])c1ccc(S(=O)(=O)c2ccccc2)nc1`, for which the EC50 in assay [1] was > 40 µM (inactive); in assay [2], 5.64 µM (active); in [3], 1.89 µM (active); in assay [7] it was 2.5 µM (active). The CC50 in assay [4] is 8.09 µM (active). For the same molecule, the IC50 in [5] was 3.48 µM (active); in [6], 13.1 µM (active); in assay [12], 2.65 µM (active). Besides, the AC50 is 6.73 µM (active) in [8]; 1.74 µM (active) in assay [9]; 16.2 µM (active) in assay [10]; 3.96 µM (active) in assay [11]; 8.59 µM (active) in [13]; 6.81 µM (active) in assay [14]. The AC50 is 3.97 µM (active) in assay [15], 4.77 µM (active) in [16] and 8.17 µM (active) in assay [17].
Consider `Cc1ccc(CN2CCSc3ccc(C(=O)NC4CCN(Cc5ccccc5)CC4)cc32)cc1`, for which, in [18], the CC50 was > 40 µM (active). The EC50 in assay [3] is 1.37 µM (active); in assay [7], > 60 µM (not active).
Take `CC1CCc2c(nc3sc4c(c3c2N)CCCC4)C1` (centres undefined): the IC50 is > 32 µM (inactive) in assay [19], 2.2 µM (active) in assay [22], over 32 µM in [24] and > 80 µM (inactive) in [25]. The EC50 in [20] is > 32 µM (inactive); in assay [21], > 32 µM (inactive); in assay [23], > 31.5 µM (inactive).
In the case of `Oc1cc(CSc2ccc(Cl)cc2)nc(-c2ccccn2)n1`, the EC50 in [26] was 9.84 µM (active); in [20], > 32 µM (inactive); in assay [27] it was 0.489 µM (active); in assay [21], > 32 µM (inactive); in [1] it was > 40 µM (inactive); in assay [28], > 150 µM (not active). The EC50 in [29] was 0.1 µM (active); in assay [3], 0.549 µM (active); in assay [7], 5.92 µM (active); in assay [23] it was > 31.5 µM (inactive); in assay [30], 6.82 µM (active); in assay [32], 5.93 µM (active). Also, the IC50 in assay [19] was > 32 µM (inactive); in assay [6] it was 13 µM (active); in assay [22] it was 4.86 µM (active); in assay [24] it was over 32 µM; in assay [31] it was 14.4 µM (active). The AC50 in assay [33] is 23.3 µM (active); in assay [8], 2.74 µM (active). Further, the CC50 in assay [34] was 5.82 µM (active).
For the molecule `O=C(c1cc(-c2ccco2)nc2ccccc12)N1CCC(CO)CC1`, in assay [35], the IC50 is > 56.8 µM (inactive).
Take `Cc1ccc(C2CC(=O)NC(SCCC(C)C)=C2C#N)cc1` (centres undefined): the EC50 in assay [36] was > 50 µM (active).
